The values below come from ChEMBL document CHEMBL1165891, “Synthesis and evaluation of novel chromone analogs for their inhibitory activity against interleukin-5” (Eur J Med Chem, 2010).

Some results are limits rather than exact numbers.

The nature of experiment [1]: Antiinflammatory activity against mouse Y16 cells assessed as inhibition of IL5 production. The format is functional, cell-based.
Experiment [2] is described as follows: Antiinflammatory activity against mouse Y16 cells assessed as inhibition of IL5 production at 30 uM. The format is functional.
Experiment [3] in a line: Antiinflammatory activity against mouse Y16 cells assessed as inhibition of IL5 production at 50 uM. The format is functional.

With `O=c1c(Cc2ccccc2)coc2cccc(OCC3CCCCC3)c12`, the IC50 in experiment [1] was determined as 22.9 µM. For the same compound, the inhibition at 30 µM in experiment [2] was 56%.
For the compound `O=c1c(Cc2ccc(O)cc2)coc2cccc(OCC3CCCCC3)c12`, the IC50 in experiment [1] was below 3 µM. The inhibition at 30 µM in experiment [2] was determined as 98%.
In the same order, the values of `O=c1c(CO)coc2cccc(OCC3CCCCC3)c12` are 7.6 µM and 84%.
The like results for `CC(C)COc1cccc2occ(CO)c(=O)c12` were, in that order, 21.6 µM and 56%.
Take `CCc1ccc(Cc2coc3cccc(OCC4CCCCC4)c3c2=O)cc1`: the IC50 in experiment [1] was above 30 µM. Besides, the inhibition at 30 µM in experiment [2] is 45%.
In the same order, the values of `O=c1c(Cc2ccc(Cl)cc2)coc2cccc(OCC3CCCCC3)c12` are above 30 µM and 36%.
The like results for `O=c1c(Cc2ccc(C(F)(F)F)cc2)coc2cccc(OCC3CCCCC3)c12` were, in that order, above 30 µM and 47%.
With `Cc1ccc(Cc2coc3cccc(OCCC(C)C)c3c2=O)cc1`, the IC50 in experiment [1] is above 30 µM. Moreover, the inhibition at 30 µM in experiment [2] came out at 35%.
In the same order, the values of `O=C(O)c1coc2cccc(OCC3CCCCC3)c2c1=O` are above 30 µM and 43%.
In the same order, the values of `CC(C)COc1cccc2occ(CCC(=O)O)c(=O)c12` are above 30 µM and below 10%.
The like results for `O=c1c(/C=N/O)coc2cccc(OCC3CCCCC3)c12` were, in that order, above 30 µM and below 10%.
Consider `O=c1c(CCl)coc2cccc(OCC3CCCCC3)c12`, for which the IC50 in experiment [1] is above 30 µM. The inhibition at 30 µM in experiment [2] was 45%.
In the same order, the values of `CC(C)COc1cccc2occ(CCl)c(=O)c12` are above 30 µM and 43%.
As to `NS(=O)(=O)c1ccc(Cc2coc3cccc(OCC4CCCCC4)c3c2=O)cc1`, the IC50 in experiment [1] is above 30 µM. Also, the inhibition at 30 µM in experiment [2] was found to be 31%.
The like results for `O=C(O)c1ccc(Cc2coc3cccc(OCC4CCCCC4)c3c2=O)cc1` were, in that order, 12.3 µM and 77%.
In the same order, the values of `Cc1ccc(Cc2coc3cccc(OCC4CCCCC4)c3c2=O)cc1` are 14.8 µM and 86%.
For `CC(C)COc1cccc2occ(C(=O)O)c(=O)c12`, the IC50 in experiment [1] was above 30 µM. Further, in experiment [2], the inhibition at 30 µM is 33%.
In the same order, the values of `CC(C)COc1cccc2occ(Cc3ccc(C(=O)O)cc3)c(=O)c12` are 11.4 µM and 73%.
The like results for `O=C(O)CCc1coc2cccc(OCC3CCCCC3)c2c1=O` were, in that order, above 30 µM and below 10%.
As for `CC(C)COc1cccc2occ(/C=N/O)c(=O)c12`, the IC50 in experiment [1] was above 30 µM. The inhibition at 30 µM in experiment [2] was below 10%.
Turning to `CC(C)CCOc1cccc2occ(Cc3ccc(O)cc3)c(=O)c12`, the IC50 in experiment [1] was above 30 µM. Besides, the inhibition at 30 µM in experiment [2] was determined as 36%.
The like results for `COc1cc(Cc2coc3cccc(OCC4CCCCC4)c3c2=O)cc(OC)c1OC` were, in that order, 12.5 µM and 85%.
As to `O=c1c(-c2ccc(O[C@@H]3O[C@H](CO)[C@@H](O)[C@H](O)[C@H]3O)cc2)coc2cc(O)cc(O)c12` [SOPHORICOSIDE], the IC50 in experiment [1] is 10.3 µM. The inhibition at 50 µM in experiment [3] came out at 93.8%.
